In ChEMBL document CHEMBL1158606, “Synthesis and molecular modeling studies of 3-chloro-4-substituted-1-(8-hydroxy-quinolin-5-yl)-azetidin-2-ones as novel anti-filarial agents” (2010):
Calls of active or inactive are those of the source. The calls are words filed in the database; no cut-off is given here.

Tests used:
Assay type in all cases: functional
Brugia malayi [1] = assay: Antifilarial activity against Brugia malayi assessed as loss of motility at 20 ng/ml after 48 hrs by MTT assay
Brugia malayi [2] = assay: Antifilarial activity against Brugia malayi assessed as loss of motility at 40 ng/ml after 48 hrs by MTT assay
Brugia malayi [3] = assay: Antifilarial activity against Brugia malayi assessed as loss of motility at 60 ng/ml after 48 hrs by MTT assay
Brugia malayi [4] = assay: Antifilarial activity against Brugia malayi assessed as loss of motility at 80 ng/ml after 48 hrs by MTT assay
Brugia malayi [5] = assay: Antifilarial activity against Brugia malayi assessed as loss of motility at 100 ng/ml after 48 hrs by MTT assay

| Compound | Activity (Brugia malayi [1]) | Activity (Brugia malayi [2]) | Activity (Brugia malayi [3]) | Activity (Brugia malayi [4]) [%] | Activity (Brugia malayi [5]) [%] |
| --- | --- | --- | --- | --- | --- |
| O=C1C(Cl)C(c2ccccc2)N1c1ccc(O)c2ncccc12 (stereo not given) | inactive | inactive | inactive | 2 | 2 |
| O=C1C(Cl)C(c2ccc(F)cc2)N1c1ccc(O)c2ncccc12 (stereo not given) | inactive | inactive | 12% | 26 | 37 |
| O=C1C(Cl)C(c2ccc(Br)cc2)N1c1ccc(O)c2ncccc12 (stereo not given) | inactive | inactive | 3% | 16 | 23 |
| COc1ccc(C2C(Cl)C(=O)N2c2ccc(O)c3ncccc23)cc1 (stereo not given) | 67% | 76% | 91% | 91 | 91 |
| CC1C(Cl)C(=O)N1c1ccc(O)c2ncccc12 (stereo not given) | 53% | 61% | 67% | 76 | 81 |
| O=C1C(Cl)C(c2ccc(Cl)cc2)N1c1ccc(O)c2ncccc12 (stereo not given) | inactive | 10% | 19% | 36 | 59 |
